Test results: patent US9328093B2, “Selective inhibitors of ubiquitin specific protease 7, the pharmaceutical compositions thereof and their therapeutic applications” (HYBRIGENICS SA, priority 2010, dated 2016)

Legend:
[1] = tested on: HCT116 colon cancer cells; experiment: HCT116 cell viability and proliferation assay (MTS); assay type: cell-based; details: Homo sapiens, HCT-116, 72 h, HCT116, 72 hours, read-out: Cell viability (MTS): HCT116 GI50 Day3
Procedure, shortened: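 HCT116 cells (10^3/well) treated in triplicate 24 h after seeding with 50 nM–100 μM compound, 0.5% final DMSO, for 72 h at 37 °C. Viability by MTS (2 h), absorbance 492 nm; GI50 from sigmoidal variable-slope fit, mean of three independent experiments.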

[2] = target: T1, USP5 (Homo sapiens, UniProt P45974); experiment: USP5 activity assay (Ub-AMC substrate); assay type: biochemical; details: Ub-AMC 300 nM, USP5 300 pM
T1 sequence (P45974 1-858): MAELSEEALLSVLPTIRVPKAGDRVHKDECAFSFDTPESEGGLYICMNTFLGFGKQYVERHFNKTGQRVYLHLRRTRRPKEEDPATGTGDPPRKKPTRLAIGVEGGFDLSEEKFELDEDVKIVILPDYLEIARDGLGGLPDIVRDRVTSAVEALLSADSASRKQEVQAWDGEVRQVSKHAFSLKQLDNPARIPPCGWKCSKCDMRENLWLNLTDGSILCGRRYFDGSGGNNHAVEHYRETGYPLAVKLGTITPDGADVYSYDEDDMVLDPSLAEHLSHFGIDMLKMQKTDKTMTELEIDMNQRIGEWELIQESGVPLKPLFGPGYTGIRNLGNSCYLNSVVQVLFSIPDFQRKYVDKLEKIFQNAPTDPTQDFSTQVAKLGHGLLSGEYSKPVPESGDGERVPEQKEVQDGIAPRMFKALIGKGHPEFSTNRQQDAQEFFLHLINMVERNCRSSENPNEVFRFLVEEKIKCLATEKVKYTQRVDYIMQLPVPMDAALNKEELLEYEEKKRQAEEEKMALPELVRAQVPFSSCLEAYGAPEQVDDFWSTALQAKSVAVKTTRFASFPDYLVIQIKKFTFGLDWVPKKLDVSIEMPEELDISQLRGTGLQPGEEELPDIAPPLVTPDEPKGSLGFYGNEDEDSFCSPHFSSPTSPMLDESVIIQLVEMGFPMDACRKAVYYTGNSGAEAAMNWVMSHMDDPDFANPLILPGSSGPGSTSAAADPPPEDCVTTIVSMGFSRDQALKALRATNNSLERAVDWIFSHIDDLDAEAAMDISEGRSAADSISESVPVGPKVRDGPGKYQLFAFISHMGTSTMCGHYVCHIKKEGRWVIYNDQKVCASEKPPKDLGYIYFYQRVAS
Method: USP5 was diluted in USP buffer (50 mM Tris HCl; 0.5 mM EDTA; 5 mM DTT; 0.01% Triton X-100; Bovine Serum Albumin 0.05 mg·ml^−1 pH 7.6). Compounds stocks (100 mM) were stored at −20° C. in DMSO. Compounds were tested at different concentrations: from 200 μM to 91 nM.
Reactions were performed as duplicates in Black 384 well plates (small volume microplates; Greiner; 10 μl final reaction volume). The substrate concentration for USP5 was 300 nM Ub-AMC (Boston Biochem). The concentrations of the enzyme (USP5) in specificity assays was 300 pM. The concentrations were determined in order to perform specificity assays under initial velocities at fixed substrate concentration. Compounds were pre-incubated with enzymes for 30 minutes at 25° C. Reactions were initiated by addition of substrate to the plates containing the enzymes (+/− compounds) diluted in assay buffer. Reactions were incubated for 60 minutes at 37° C. Reactions were stopped by adding acetic acid (100 mM final). Readings were performed on a Pherastar Fluorescent Reader (BMG). λ Emission 380 nm; λ Excitation=460 nm. Data (mean values +/− standard deviation) were analyzed as % of control (no compound) and plotted as percentage versus the Log of the compound concentration using GraphPad (Prism). Data were fitted to a sigmoidal model (variable slope).

Row | Structure (SMILES) | GI50 [1] [µM] | IC50 [2] [µM]
1 | CN1CCCC1CCNC(=O)c1ccc2c(Cl)c3c(nc2c1)CCCC3 (stereo not drawn) [Example 17, 9-chloro-N-(2-(1-methylpyrrolidin-2-yl)ethyl)-5,6,7,8-tetrahydroacridino-3-carboxamide] | 6.9 | > 200
2 | O=C(NCc1cccc(CN2CCCC2)c1)c1ccc2c(Cl)c3c(nc2c1)CCCC3 [Example 18, 9-chloro-N-(3-(pyrrolidin-1-ylmethyl)benzyl)-5,6,7,8-tetrahydroacridine-3-carboxamide] | 4.3 | > 200
3 | O=C(Nc1cccc(CN2CCCC2)c1)c1ccc2c(Cl)c3c(nc2c1)CCCC3 [Example 19, 9-chloro-N-(3-(pyrrolidin-1-ylmethyl)phenyl)-5.6,7,8-tetrahydroacridine-3-carboxamide] | 4.1 | > 200
4 | CC1CCCCN1CCCNC(=O)c1ccc2c(Cl)c3c(nc2c1)CCCC3 (stereo not drawn) [Example 20, 9-chloro-N-(3-(2-methylpiperidin-1-yl)propyl)-516,7,8-tetrahydroacridine-3-carboxamide] | 8.4 | > 200
5 | O=C(NCc1ccc(CN2CCCC2)cc1)c1ccc2c(Cl)c3c(nc2c1)CCCC3 [Example 21, 9-chloro-N-(4-(pyrrolidin-1-ylmethyl)benzyl)-5,6,7,8-tetrahydroacridine-3-carboxamide] | 3.5 | > 200
6 | COc1ccc(CN2CCC(CNC(=O)c3ccc4c(Cl)c5c(nc4c3)CCCC5)CC2)cc1 [Example 22, 9-chloro-N-((1-(4-methoxybenzyl)piperidin-4-yl)methyl)-5,6,7,8-tetrahydroacridine-3-carboxamide] | 3.3 | > 200
7 | CN(C)c1ccc(CN2CCC(CNC(=O)c3ccc4c(Cl)c5c(nc4c3)CCCC5)CC2)cc1 [Example 23] | 1.8 | > 200
8 | O=C(NCC1CCNCC1)c1ccc2c(Cl)c3c(nc2c1)CCCC3 [Example 24, 9-chloro-N-((piperidin-4-yl)methyl)-5,6,7,8-tetrahydroacridine-3-carboxamide] | 8.3 | > 200
9 | O=C(NCC(CN1CCCC1)C(O)c1ccccc1)c1ccc2c(Cl)c3c(nc2c1)CCCC3 (stereo not drawn) [Example 25, 9-chloro-N-(3-hydroxy-3-phenyl-2-pyrrolidin-1-ylmethylpropyl)-5,6,7,8-tetrahydroacridine-3-carboxamide] | 5.6 | > 200
